# Laboratory results as given in patent EP4722207A1, “OXOISOINDOLINYL-SUBSTITUTED TETRAHYDROPYRIMIDINEDIONE DERIVATIVE AND USE THEREOF” (Gluetacs Therapeutics (Shanghai) Co., Ltd., priority 2023, dated 2024).
# Experiments:
# Format in all cases: cell-based
# Settings in all cases: 24 hours of compound treatment, 50 nM and 500 nM
# CK1α = biological target: T1, CK1α (Homo sapiens, UniProt P48729+Q96SW2); assay: Western-blot assay, substrate protein degradation in hPBMCs: CK1α
# T1 construct: effects of the compounds of the present disclosure on the expression of target proteins in cells; endogenous in cells; host or cells: human PBMCs (hPBMCs)
# IKZF1 = biological target: T2, IKZF1 (Homo sapiens, UniProt Q13422+Q96SW2); assay: Western-blot assay, substrate protein degradation in hPBMCs: IKZF1
# T2 construct: effects of the compounds of the present disclosure on the expression of target proteins in cells; endogenous in cells; host or cells: human PBMCs (hPBMCs)
# GSPT1 = biological target: T3, GSPT1 (Homo sapiens, UniProt P15170+Q96SW2); assay: Western-blot assay, substrate protein degradation in hPBMCs: GSPT1
# T3 construct: effects of the compounds of the present disclosure on the expression of target proteins in cells; endogenous in cells; host or cells: human PBMCs (hPBMCs)
# WEE1 = biological target: T4, WEE1 (Homo sapiens, UniProt P30291+Q96SW2); assay: Western-blot assay, substrate protein degradation in hPBMCs: WEE1
# T4 construct: effects of the compounds of the present disclosure on the expression of target proteins in cells; endogenous in cells; host or cells: human PBMCs (hPBMCs)
# IKZF3 = biological target: T5, IKZF3 (Homo sapiens, UniProt Q96SW2+Q9UKT9); assay: Western-blot assay, substrate protein degradation in hPBMCs: IKZF3
# T5 construct: effects of the compounds of the present disclosure on the expression of target proteins in cells; endogenous in cells; host or cells: human PBMCs (hPBMCs)
# IKZF2 = biological target: T6, IKZF2 (Homo sapiens, UniProt Q96SW2+Q9UKS7); assay: Western-blot assay, substrate protein degradation in hPBMCs: IKZF2
# T6 construct: effects of the compounds of the present disclosure on the expression of target proteins in cells; endogenous in cells; host or cells: human PBMCs (hPBMCs)
# T6 sequence (Q9UKS7 whole entry): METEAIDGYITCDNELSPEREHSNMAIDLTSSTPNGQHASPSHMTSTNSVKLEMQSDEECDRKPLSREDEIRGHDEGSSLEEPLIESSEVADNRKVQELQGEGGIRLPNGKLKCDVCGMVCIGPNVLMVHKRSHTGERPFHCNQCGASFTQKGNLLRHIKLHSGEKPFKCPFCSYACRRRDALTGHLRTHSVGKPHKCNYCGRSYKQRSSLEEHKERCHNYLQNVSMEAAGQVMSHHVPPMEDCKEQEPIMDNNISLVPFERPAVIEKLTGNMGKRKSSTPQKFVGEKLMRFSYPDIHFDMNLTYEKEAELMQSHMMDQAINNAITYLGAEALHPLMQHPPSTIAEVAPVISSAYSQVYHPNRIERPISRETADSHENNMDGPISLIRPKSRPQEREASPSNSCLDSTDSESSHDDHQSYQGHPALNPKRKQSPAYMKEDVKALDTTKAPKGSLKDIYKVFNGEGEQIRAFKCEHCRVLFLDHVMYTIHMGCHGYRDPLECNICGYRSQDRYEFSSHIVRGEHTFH
# T6 sequence (Q96SW2 whole entry): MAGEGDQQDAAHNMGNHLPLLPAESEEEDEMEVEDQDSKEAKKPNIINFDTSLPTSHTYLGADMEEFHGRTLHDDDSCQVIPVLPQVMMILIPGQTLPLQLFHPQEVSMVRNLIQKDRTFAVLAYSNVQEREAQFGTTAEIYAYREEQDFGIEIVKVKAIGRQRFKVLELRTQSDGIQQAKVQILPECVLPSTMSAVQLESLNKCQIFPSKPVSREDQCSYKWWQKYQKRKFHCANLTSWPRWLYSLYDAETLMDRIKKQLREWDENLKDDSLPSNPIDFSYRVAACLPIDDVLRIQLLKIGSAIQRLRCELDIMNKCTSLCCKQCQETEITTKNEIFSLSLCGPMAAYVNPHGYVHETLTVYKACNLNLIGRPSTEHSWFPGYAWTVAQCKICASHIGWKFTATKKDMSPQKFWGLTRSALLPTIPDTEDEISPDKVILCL
# T6 sequence (Q16531 whole entry partner): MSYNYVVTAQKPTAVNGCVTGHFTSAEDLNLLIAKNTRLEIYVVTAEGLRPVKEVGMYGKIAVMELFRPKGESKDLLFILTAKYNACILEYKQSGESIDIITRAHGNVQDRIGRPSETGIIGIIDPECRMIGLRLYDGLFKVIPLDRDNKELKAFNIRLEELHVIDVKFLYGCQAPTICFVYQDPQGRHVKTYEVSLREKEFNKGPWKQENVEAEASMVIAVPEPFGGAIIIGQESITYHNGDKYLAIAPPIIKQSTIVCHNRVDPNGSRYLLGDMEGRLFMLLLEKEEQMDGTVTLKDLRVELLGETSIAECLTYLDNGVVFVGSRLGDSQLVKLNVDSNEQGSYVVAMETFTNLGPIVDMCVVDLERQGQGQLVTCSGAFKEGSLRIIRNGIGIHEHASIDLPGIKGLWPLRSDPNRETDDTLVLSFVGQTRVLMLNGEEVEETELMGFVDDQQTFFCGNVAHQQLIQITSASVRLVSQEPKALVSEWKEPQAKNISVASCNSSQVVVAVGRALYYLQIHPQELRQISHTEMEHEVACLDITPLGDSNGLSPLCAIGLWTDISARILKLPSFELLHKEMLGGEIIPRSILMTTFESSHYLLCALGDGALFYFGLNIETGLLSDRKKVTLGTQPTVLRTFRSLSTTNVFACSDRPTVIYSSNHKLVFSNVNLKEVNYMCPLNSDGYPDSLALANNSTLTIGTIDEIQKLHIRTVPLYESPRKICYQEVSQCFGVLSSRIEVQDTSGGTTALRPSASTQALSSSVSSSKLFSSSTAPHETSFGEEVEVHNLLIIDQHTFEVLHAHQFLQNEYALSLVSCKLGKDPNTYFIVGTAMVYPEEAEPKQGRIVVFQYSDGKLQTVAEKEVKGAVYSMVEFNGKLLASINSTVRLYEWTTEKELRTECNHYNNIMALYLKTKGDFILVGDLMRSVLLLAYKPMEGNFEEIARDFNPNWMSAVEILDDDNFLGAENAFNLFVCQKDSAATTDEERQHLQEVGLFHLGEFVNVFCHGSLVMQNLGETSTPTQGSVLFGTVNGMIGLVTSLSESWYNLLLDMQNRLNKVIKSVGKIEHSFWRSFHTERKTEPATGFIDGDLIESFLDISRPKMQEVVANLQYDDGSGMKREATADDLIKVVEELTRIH
# T4 sequence (P30291 whole entry): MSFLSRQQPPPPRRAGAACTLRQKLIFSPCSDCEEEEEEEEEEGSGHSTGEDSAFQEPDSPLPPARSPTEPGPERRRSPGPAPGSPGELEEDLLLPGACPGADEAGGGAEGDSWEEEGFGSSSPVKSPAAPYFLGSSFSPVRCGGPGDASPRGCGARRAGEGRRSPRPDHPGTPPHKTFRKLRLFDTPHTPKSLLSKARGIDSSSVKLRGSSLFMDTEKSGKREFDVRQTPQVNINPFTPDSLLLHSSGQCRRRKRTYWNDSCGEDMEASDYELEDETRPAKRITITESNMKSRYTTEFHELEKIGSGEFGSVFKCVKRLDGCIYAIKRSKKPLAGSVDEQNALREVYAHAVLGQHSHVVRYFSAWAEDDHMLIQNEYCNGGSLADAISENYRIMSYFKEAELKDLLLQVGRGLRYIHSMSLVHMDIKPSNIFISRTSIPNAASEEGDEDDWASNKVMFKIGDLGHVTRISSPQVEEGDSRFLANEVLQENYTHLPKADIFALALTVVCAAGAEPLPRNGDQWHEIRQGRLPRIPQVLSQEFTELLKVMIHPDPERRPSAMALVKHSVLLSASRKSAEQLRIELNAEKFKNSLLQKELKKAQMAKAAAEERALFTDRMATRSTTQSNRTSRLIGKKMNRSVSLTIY
# T4 sequence (Q96SW2 whole entry): as the sequence (Q96SW2 whole entry) above
# T4 sequence (Q16531 whole entry partner): as the sequence (Q16531 whole entry partner) above
# T1 sequence (P48729 whole entry): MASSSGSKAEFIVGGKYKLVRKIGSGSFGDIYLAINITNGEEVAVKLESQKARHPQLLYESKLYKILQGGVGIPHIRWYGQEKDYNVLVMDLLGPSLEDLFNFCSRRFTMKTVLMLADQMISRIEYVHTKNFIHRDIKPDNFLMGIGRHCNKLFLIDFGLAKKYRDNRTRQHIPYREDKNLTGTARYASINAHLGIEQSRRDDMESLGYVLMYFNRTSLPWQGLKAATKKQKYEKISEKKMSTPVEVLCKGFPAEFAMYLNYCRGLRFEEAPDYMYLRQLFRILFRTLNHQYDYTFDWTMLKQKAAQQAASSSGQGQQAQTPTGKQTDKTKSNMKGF
# T1 sequence (Q96SW2 whole entry): as the sequence (Q96SW2 whole entry) above
# T1 sequence (Q16531 whole entry partner): as the sequence (Q16531 whole entry partner) above
# T2 sequence (Q13422 whole entry): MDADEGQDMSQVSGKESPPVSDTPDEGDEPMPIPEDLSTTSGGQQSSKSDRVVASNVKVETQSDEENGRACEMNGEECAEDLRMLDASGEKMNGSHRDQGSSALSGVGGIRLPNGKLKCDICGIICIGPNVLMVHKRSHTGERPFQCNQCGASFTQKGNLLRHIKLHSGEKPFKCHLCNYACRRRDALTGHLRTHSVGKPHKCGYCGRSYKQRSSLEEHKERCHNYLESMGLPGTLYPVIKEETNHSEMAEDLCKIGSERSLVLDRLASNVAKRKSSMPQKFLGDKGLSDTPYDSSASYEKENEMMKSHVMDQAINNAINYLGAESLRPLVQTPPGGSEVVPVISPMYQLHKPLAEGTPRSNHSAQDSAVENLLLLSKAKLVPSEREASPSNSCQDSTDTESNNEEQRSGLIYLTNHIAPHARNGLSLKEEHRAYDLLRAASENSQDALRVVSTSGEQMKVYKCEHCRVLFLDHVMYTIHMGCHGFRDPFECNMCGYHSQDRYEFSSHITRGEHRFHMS
# T2 sequence (Q96SW2 whole entry): as the sequence (Q96SW2 whole entry) above
# T2 sequence (Q16531 whole entry partner): as the sequence (Q16531 whole entry partner) above
# T3 sequence (P15170 whole entry): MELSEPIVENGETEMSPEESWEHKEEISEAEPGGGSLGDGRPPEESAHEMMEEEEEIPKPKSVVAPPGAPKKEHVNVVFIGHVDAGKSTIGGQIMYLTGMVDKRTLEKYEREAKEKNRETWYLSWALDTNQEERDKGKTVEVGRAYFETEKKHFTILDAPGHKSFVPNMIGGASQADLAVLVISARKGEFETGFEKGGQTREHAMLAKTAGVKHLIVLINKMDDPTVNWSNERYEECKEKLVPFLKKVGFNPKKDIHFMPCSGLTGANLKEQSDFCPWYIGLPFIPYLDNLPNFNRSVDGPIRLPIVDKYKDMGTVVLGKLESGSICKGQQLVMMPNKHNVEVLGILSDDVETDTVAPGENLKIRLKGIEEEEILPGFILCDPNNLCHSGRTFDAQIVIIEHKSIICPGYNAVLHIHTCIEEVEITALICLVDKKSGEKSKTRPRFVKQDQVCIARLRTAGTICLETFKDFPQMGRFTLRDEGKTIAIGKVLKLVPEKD
# T3 sequence (Q96SW2 whole entry): as the sequence (Q96SW2 whole entry) above
# T3 sequence (Q16531 whole entry partner): as the sequence (Q16531 whole entry partner) above
SMILES,substrate protein remaining % CK1α (CK1α),substrate protein remaining % IKZF1 (IKZF1),substrate protein remaining % GSPT1 (GSPT1),substrate protein remaining % WEE1 (WEE1),substrate protein remaining % IKZF3 (IKZF3),substrate protein remaining % IKZF2 (IKZF2)
"O=C1CCN(N2C(=O)c3ccc(CN4CC=C(c5n[nH]c6cc(F)ccc56)CC4)cc3C2=O)C(=O)N1 [GT-07643, 2-(2,4-dioxotetrahydropyrimidin-1(2H)-yl)-5-((4-(6-fluoro-1H-indazol-3-yl)-3,6-dihydropyridin-1(2H)-yl)methyl)isoindoline-1,3-dione]",B (80%< substrate protein remaining %≤ 100%),B (80%< substrate protein remaining %≤ 100%),A (0% ≤ substrate protein remaining % ≤ 80%),B (80%< substrate protein remaining %≤ 100%),B (80%< substrate protein remaining %≤ 100%),B (80%< substrate protein remaining %≤ 100%)
"O=C1CCN(N2Cc3cc(CN4CCC(c5cccc6cnccc56)CC4)ccc3C2=O)C(=O)N1 [GT-07644, 1-(5-((4-(isoquinolin-5-yl)piperidin-1-yl)methyl)-1-oxoisoindolin-2-yl)dihydropyrimidine-2,4(1H,3H)-dione]",B (80%< substrate protein remaining %≤ 100%),B (80%< substrate protein remaining %≤ 100%),A (0% ≤ substrate protein remaining % ≤ 80%),B (80%< substrate protein remaining %≤ 100%),B (80%< substrate protein remaining %≤ 100%),B (80%< substrate protein remaining %≤ 100%)
"O=C1CCN(N2Cc3cc(CN4CCC(c5ccnc6cc(F)ccc56)CC4)ccc3C2=O)C(=O)N1 [GT-07645, 1-(5-((4-(7-fluoroquinolin-4-yl)piperidin-1-yl)methyl)-1-oxoisoindolin-2-yl)dihydropyrimidine-2,4(1H,3H)-dione]",B (80%< substrate protein remaining %≤ 100%),A (0% ≤ substrate protein remaining % ≤ 80%),A (0% ≤ substrate protein remaining % ≤ 80%),B (80%< substrate protein remaining %≤ 100%),B (80%< substrate protein remaining %≤ 100%),B (80%< substrate protein remaining %≤ 100%)
"O=C1CCN(N2C(=O)c3ccc(CN4CCC(N5CCCc6cc(F)ccc65)CC4)cc3C2=O)C(=O)N1 [GT-07681, 2-(2,4-dioxotetrahydropyrimidin-1(2H)-yl)-5-((4-(6-fluoro-3,4-dihydroquinolin-1(2H)-yl)piperidin-1-yl)methyl)isoindoline-1,3-dione]",B (80%< substrate protein remaining %≤ 100%),A (0% ≤ substrate protein remaining % ≤ 80%),A (0% ≤ substrate protein remaining % ≤ 80%),B (80%< substrate protein remaining %≤ 100%),B (80%< substrate protein remaining %≤ 100%),B (80%< substrate protein remaining %≤ 100%)
"O=C1CCN(N2C(=O)c3ccc(CN4CCC(N5CCOc6cc(F)ccc65)CC4)cc3C2=O)C(=O)N1 [GT-07682, 2-(2,4-dioxotetrahydropyrimidin-1(2H)-yl)-5-((4-(7-fluoro-2,3-dihydro-4H-benzo[b][1,4]oxazin-4-yl)piperidin-1-yl)methyl)isoindoline-1,3-dione]",B (80%< substrate protein remaining %≤ 100%),B (80%< substrate protein remaining %≤ 100%),A (0% ≤ substrate protein remaining % ≤ 80%),B (80%< substrate protein remaining %≤ 100%),B (80%< substrate protein remaining %≤ 100%),B (80%< substrate protein remaining %≤ 100%)
"O=C1CCN(N2C(=O)c3ccc(CN4CCC(N5C(=O)COc6cc(F)ccc65)CC4)cc3C2=O)C(=O)N1 [GT-07683, 2-(2,4-dioxotetrahydropyrimidin-1(2H)-yl)-5-((4-(7-fluoro-3-oxo-2,3-dihydro-4H-benzo[b][1,4]oxazin-4-yl)piperidin-1-yl)methyl)isoindoline-1,3-dione]",B (80%< substrate protein remaining %≤ 100%),B (80%< substrate protein remaining %≤ 100%),A (0% ≤ substrate protein remaining % ≤ 80%),B (80%< substrate protein remaining %≤ 100%),B (80%< substrate protein remaining %≤ 100%),B (80%< substrate protein remaining %≤ 100%)
"O=C1CCN(N2C(=O)c3ccc(CN4CCC(C5CCOc6cc(F)ccc65)CC4)cc3C2=O)C(=O)N1 (stereo not drawn) [GT-07684, 2-(2,4-dioxotetrahydropyrimidin-1(2H)-yl)-5-((4-(7-fluorochroman-4-yl)piperidin-1-yl)methyl)isoindoline-1,3-dione]",B (80%< substrate protein remaining %≤ 100%),B (80%< substrate protein remaining %≤ 100%),A (0% ≤ substrate protein remaining % ≤ 80%),B (80%< substrate protein remaining %≤ 100%),B (80%< substrate protein remaining %≤ 100%),B (80%< substrate protein remaining %≤ 100%)
"O=C1CCN(N2C(=O)c3ccc(CN4CCC(=C5CCOc6cc(F)ccc65)CC4)cc3C2=O)C(=O)N1 [GT-07685, 2-(2,4-dioxotetrahydropyrimidin-1(2H)-yl)-5-((4-(7-fluorochroman-4-ylidene)piperidin-1-yl)methyl)isoindoline-1,3-dione]",B (80%< substrate protein remaining %≤ 100%),B (80%< substrate protein remaining %≤ 100%),A (0% ≤ substrate protein remaining % ≤ 80%),B (80%< substrate protein remaining %≤ 100%),B (80%< substrate protein remaining %≤ 100%),B (80%< substrate protein remaining %≤ 100%)
"O=C1CCN(N2C(=O)c3ccc(CN4CCC(c5cccc6c(F)cccc56)CC4)cc3C2=O)C(=O)N1 [GT-07686, 2-(2,4-dioxotetrahydropyrimidin-1(2H)-yl)-5-((4-(5-fluoronaphthalen-1-yl)piperidin-1-yl)methyl)isoindoline-1,3-dione]",B (80%< substrate protein remaining %≤ 100%),B (80%< substrate protein remaining %≤ 100%),A (0% ≤ substrate protein remaining % ≤ 80%),B (80%< substrate protein remaining %≤ 100%),B (80%< substrate protein remaining %≤ 100%),B (80%< substrate protein remaining %≤ 100%)
"O=C1CCN(N2C(=O)c3ccc(CN4CC=C(c5cccc6c(F)cccc56)CC4)cc3C2=O)C(=O)N1 [GT-07687, 2-(2,4-dioxotetrahydropyrimidin-1(2H)-yl)-5-((4-(5-fluoronaphthalen-1-yl)-3,6-dihydropyridin-1(2H)-yl)methyl)isoindoline-1,3-dione]",B (80%< substrate protein remaining %≤ 100%),B (80%< substrate protein remaining %≤ 100%),A (0% ≤ substrate protein remaining % ≤ 80%),B (80%< substrate protein remaining %≤ 100%),B (80%< substrate protein remaining %≤ 100%),B (80%< substrate protein remaining %≤ 100%)
"O=C1CCN(N2C(=O)c3ccc(CN4CCC(c5cccc6cnccc56)CC4)cc3C2=O)C(=O)N1 [GT-07688, 2-(2,4-dioxotetrahydropyrimidin-1(2H)-yl)-5-((4-(isoquinolin-5-yl)piperidin-1-yl)methyl)isoindoline-1,3-dione]",B (80%< substrate protein remaining %≤ 100%),B (80%< substrate protein remaining %≤ 100%),A (0% ≤ substrate protein remaining % ≤ 80%),B (80%< substrate protein remaining %≤ 100%),B (80%< substrate protein remaining %≤ 100%),B (80%< substrate protein remaining %≤ 100%)
"O=C1CCN(N2C(=O)c3ccc(CN4CCC(c5ccnc6cc(F)ccc56)CC4)cc3C2=O)C(=O)N1 [GT-07689, 2-(2,4-dioxotetrahydropyrimidin-1(2H)-yl)-5-((4-(7-fluoroquinolin-4-yl)piperidin-1-yl)methyl)isoindoline-1,3-dione]",A (0% ≤ substrate protein remaining % ≤ 80%),B (80%< substrate protein remaining %≤ 100%),A (0% ≤ substrate protein remaining % ≤ 80%),B (80%< substrate protein remaining %≤ 100%),B (80%< substrate protein remaining %≤ 100%),B (80%< substrate protein remaining %≤ 100%)
"O=C1CCN(N2Cc3cc(CN4CC(C5CCOc6cc(F)ccc65)C4)ccc3C2=O)C(=O)N1 (stereo not drawn) [GT-07690, 1-(5-((3-(7-fluorochroman-4-yl)azetidin-1-yl)methyl)-1-oxoisoindolin-2-yl)dihydropyrimidine-2,4(1H,3H)-dione]",A (0% ≤ substrate protein remaining % ≤ 80%),B (80%< substrate protein remaining %≤ 100%),A (0% ≤ substrate protein remaining % ≤ 80%),B (80%< substrate protein remaining %≤ 100%),B (80%< substrate protein remaining %≤ 100%),A (0% ≤ substrate protein remaining % ≤ 80%)
